Experimental data from ChEMBL document CHEMBL1139161, “[d4U]-butyne-[HI-236] as a non-cleavable, bifunctional NRTI/NNRTI HIV-1 reverse-transcriptase inhibitor” (Bioorg Med Chem Lett, 2007).

Key:
[1] = Therapeutic index, ratio of IC50 for human MT2 cells to EC50 for HIV1 3B; type: cell-based; conditions: read-out: Ratio IC50/EC50
MT2 = assay: Cytotoxicity against human MT2 cells; type: cell-based
[2] = tested on: Human immunodeficiency virus 1; assay: Antiviral activity against HIV1 3B in MT2 cells assessed as inhibition of viral-mediated T-cell death by MTT method; type: functional, organism-based; conditions: Human immunodeficiency virus 1, 3B

SMILES	selectivity ratio [1]	IC50 (MT2) [nM]	EC50 [2] [nM]
COc1ccc(OC)c(CCNC(=S)Nc2ccc(Br)cn2)c1	> 24	> 1000	42
C#CCCOc1ccc(OC)cc1CCNC(=S)Nc1ccc(Br)cn1	> 44	> 1000	23
COc1ccc(OCCC#Cc2cn(C3C=CC(CO)O3)c(=O)[nH]c2=O)c(CCNC(=S)Nc2ccc(Br)cn2)c1 (configuration not stated)	68	17000	250
Cc1cn([C@H]2C=C[C@@H](CO)O2)c(=O)[nH]c1=O [STAVUDINE]	> 50	> 100000	2000
